“Also recorded” adds a separate entry of the source. Where two headings read alike, the source gives them in different places. Marks after values point to notes of the source that are not given here.
Assays:
Type in all cases: in vivo, human
[1] = test system: healthy adults; assay: Treatment-emergent adverse events, single ascending dose (SAD) cohorts
Description: The SAD portion of the study used a randomized, double-blind, placebo-controlled, sequential, escalating dose design, in which participants received single ascending oral doses of the study drug. Seven cohorts were dosed in sequence (Figure 1). […] Safety was assessed by the incidence of adverse events (AEs) and by the incidence of reduced LVEF. Treatment-emergent AEs (TEAEs) were defined as AEs that began or increased after study drug administration. All AEs were coded using the Medical Dictionary for Regulatory Activities, version 21.1, and graded using the National Cancer Institute Common Terminology Criteria for AEs (version 4.03) 5-point severity scale.[18] Each AE was judged as either related or unrelated to the study drug by the treating investigator. Clinical laboratory tests were obtained at regular intervals in all cohorts.

[2] = test system: healthy adults; assay: Echocardiography (core laboratory) pharmacodynamics, MAD cohorts
Description: The MAD cohorts also used a randomized, double-blind, placebo-controlled, sequential design.
For PD assessments of LVEF, echocardiograms for the SAD and MAD cohorts were interpreted by the echocardiography core laboratory and used for all data analysis and dose-level review decisions, and immediate local interpretation of the echocardiograms was performed for safety monitoring. […] Echocardiograms on day 3 (48 hours after dosing) were obtained only if the 24-hour LVEF had not returned to near or above baseline, as determined by the investigator. In the MAD cohorts, echocardiograms were obtained on day -1; predose on day 1; at 1.5 hours postdose on days 2, 4, and 9; and at 1.5, 24, and 72 hours postdose on day 14 (for the 5-mg and 10-mg cohorts) or on day 17 (for the 7.5-mg cohort). Echocardiograms were obtained 3 days after the last dose (on day 17 or 20) only if the participant’s prior LVEF was not near or above baseline, as determined by the investigator.
Using echocardiography instrumentation certified for clinical use, echocardiographic images were obtained from standard views based on American Society of Echocardiography recommendations for chamber quantification.[19] To obtain the LVEF, the endocardial borders of 3 different cardiac cycles were traced at both end diastole and end systole from the apical 4- and 2-chamber views and LV end-diastolic volume (LVEDV) and LV end-systolic volume (LVESV), calculated using the Simpson’s method of discs algorithm. Ejection fraction was calculated in the standard manner: LVEF = (LVEDV − LVESV)/LVEDV. The intraobserver variability (coefficient of variation) for LVEF was 8%.
All participants who received ≥1 dose of the study drug and had ≥1 predose and ≥1 postdose echocardiographic measurements were included in the PD analysis set. […] Descriptive statistics of the echocardiographic parameters were generated using SAS, version 9.3 or higher. Dose-response analysis was performed using analysis of covariance to identify the least-squares mean difference (aficamten minus placebo), as described in the Supplemental Appendix. Analyses of concentration “bin” and exposure-response were also performed using analysis of covariance, as described in the Supplemental Appendix. SAS PROC MIXED was used for all comparative analyses.
Statistical A nalysis of P harmacodynamic (PD) P aram eters
To analyze the impact of drug dose on echocardiographic parameters in the SAD and MAD
cohorts, an inferential analysis was conducted on t he PD analysis set using linear mixed models
for rep eated -measur es an alysis of covarian ce ( AN COVA). The A NCOVA used baseline valu e as
a covariate, included treatment, time-point, and time-point-by- treatment interaction as fixed
effects, and ch ange f rom baseline as the d ependent variable. Th e unstructur ed varian ce-
covarian ce structu re w as used, and the model acco unted for the time- point r epeated m easur es.
The ANCOVA analysis was conducted separately for each study part and f or each PD p aram eter .
The least-squares means, the difference in least squares means (active minus placebo), and the
associated 2-sided 95% CIs were presented for each comparison.
Concentration bin analysis
An additional inferential analysis was performed i n the SAD and MAD cohorts , to evaluate the
analysis set. A concentrat ion bin ANCOVA was conducted using linear mi xed models for
repeat ed-measures an aly ses with concentr ation bin group as a fix ed ef fect, baseline PD
parameters as a covari ate, change f rom baseline as the dependent v ariable, and a random
intercept to adjust for the repeat ed measures. The unstructured variance-co variance structur e was
used.Plasma concentr ations of aficamten wer e paired with coincident PD parameters. The
ANCOVA compared the change in PD parameters between each bin versus the pooled placebo
group. The least-squ ares means, the differen ce in l east squares m eans (bin group minus placebo), […]

[3] = Plasma pharmacokinetics in the food-effect cohort; settings: single 10 mg; for CL/F / Vd/F / half-life: arithmetic mean ± SD; for Vd/F: read-out: Vz/F; for half-life: read-out: t½ (converted); for AUC(0-inf) / Cmax / AUC: geometric mean (geometric CV%); for AUC: read-out: AUC24
From the text: Participants were randomized in a 1:1 ratio to 1 of 2 sequences: fasted/fed or fed/fasted. […] For all study groups, blood samples for PK assessment were obtained predose, up to 12 times daily on day 1, and then at regular intervals throughout the study (see Supplemental Appendix for details). Standard noncompartmental methods were used to calculate PK parameters using Phoenix WinNonlin, version 7.0; actual sample collection times were used.

[4] = human, plasma, oral, 10 mg, Fasted, n = 4
[5] = human, plasma, oral, 10 mg, Fasted, n = 10
[6] = human, plasma, oral, 10 mg, Fed, n = 7

CCc1nc(-c2ccc3c(c2)CC[C@H]3NC(=O)c2cnn(C)c2)no1 [Aficamten]
Participants with any TEAE ([1]; SAD 1 mg, n = 6): 1 (17) n (%) | Participants with any TEAE ([1]; SAD 10 mg, n = 6): 1 (17) n (%) | TEAE: Headache ([1]; SAD 10 mg, n = 6): 1 (17) n (%) | Participants with any TEAE ([1]; SAD 25 mg, n = 6): 5 (83) n (%) | TEAE: Abdominal tenderness ([1]; SAD 25 mg, n = 6): 1 (17) n (%) | TEAE: Dyspepsia ([1]; SAD 25 mg, n = 6): 1 (17) n (%) | TEAE: Flatulence ([1]; SAD 25 mg, n = 6): 1 (17) n (%) | TEAE: Headache ([1]; SAD 25 mg, n = 6): 2 (33) n (%) | TEAE: Nausea ([1]; SAD 25 mg, n = 6): 2 (33) n (%) | TEAE: Upper abdominal pain ([1]; SAD 25 mg, n = 6): 2 (33) n (%) | Participants with any TEAE ([1]; SAD 40 mg, n = 6): 1 (17) n (%) | TEAE: Ejection fraction decreased ([1]; SAD 40 mg, n = 6): 1 (17) n (%) | Participants with any TEAE ([1]; SAD 50 mg, n = 11): 4 (36) n (%) | TEAE: Abdominal tenderness ([1]; SAD 50 mg, n = 11): 1 (9) n (%) | TEAE: Dyspepsia ([1]; SAD 50 mg, n = 11): 1 (9) n (%) | TEAE: Ejection fraction decreased ([1]; SAD 50 mg, n = 11): 1 (9) n (%) | TEAE: Flatulence ([1]; SAD 50 mg, n = 11): 1 (9) n (%) | TEAE: Headache ([1]; SAD 50 mg, n = 11): 1 (9) n (%) | TEAE: Chest pain ([1]; SAD 50 mg, n = 11, bubbling sensation to the left chest, consistent with a gastrointestinal rather than cardiac association): 1 (9) ^a n (%) | Participants with any TEAE ([1]; SAD 75 mg, n = 1): 1 (100) n (%) | TEAE: Ejection fraction decreased ([1]; SAD 75 mg, n = 1): 1 (100) n (%) | TEAE: Chest pain ([1]; SAD 75 mg, n = 1, onset approximately 60 hours postdose): 1 (100) ^b n (%) | Participants with absolute reduction in LVEF of ≥5% from baseline ([2]; MAD 7.5 mg once daily, 1 of 6): 17% | Participants with absolute reduction in LVEF of ≥10% from baseline ([2]; MAD 10 mg once daily): 33% | Participants with reduction in LVEF ≥10% ([2]; MAD 10 mg once daily): 2 participants | Participants who met the stopping criteria based on echocardiography results ([2]; MAD 10 mg once daily for 14 days): 2 participants | Placebo-corrected reduction in LVEF (least-squares mean difference) ([2]; MAD 10 mg once daily for 14 days, […] postdose on day 14, P = 0.21): 3.2% | Participants with absolute reduction in LVEF of ≥5% from baseline ([2]; MAD 10 mg once daily, 2 of 6): 33% | Largest mean reduction in LVEF from baseline ([2]; MAD 10 mg, […] postdose on day 14): 5.0% | Suppression of LVEF in most participants ([2]; MAD cohorts, plasma concentrations of ≤180 ng/mL): minimal suppression of LVEF | Relationship of LVEF to plasma concentration ([2]; MAD cohorts, bin concentration analysis or linear regression analysis): did not reach statistical significance | Reduction in LVEF to <50% ([2]; any of the MAD cohorts, per core laboratory assessment): not observed | CL/F ([3]; Fasted, n = 4): 2.8 ± 0.6 L/h | CL/F ([3]; Fed, n = 7): 3.1 ± 0.9 L/h | Vd/F [3, 4]: 346 ± 134 L | half-life [3, 4]: 84.4 ± 16.4 h | AUC(0-inf) [3, 4]: 3670 ng·h/mL | Cmax [3, 5]: 50.6 ng/mL | AUC [3, 5]: 601 ng·h/mL | Tmax ([3]; human, plasma, oral, 10 mg, Fasted, median (range), n = 10): 2.3 h | Cmax ([3]; human, plasma, oral, 10 mg, Fed (high-fat breakfast), n = 12): 65 ng/mL | Vd/F [3, 6]: 340 ± 100 L | half-life [3, 6]: 78 ± 8.1 h | AUC(0-inf) [3, 6]: 3410 ng·h/mL | AUC ([3]; human, plasma, oral, 10 mg, Fed, n = 12): 631 ng·h/mL | Effect of food on the PK ([3]; fed vs fasted): not affected; also recorded: no significant effect; also recorded: no effect of food | Increase of Cmax when taken with food ([3]; fed vs fasted): approximately 30%

From publication PMC9436819 (JACC: Basic to Translational Science, 2022)
